According to PMC10936602, “BaiJ and BaiB are key enzymes in the chenodeoxycholic acid 7α-dehydroxylation pathway in the gut microbe Clostridium scindens ATCC 35704” (Gut Microbes, 2024):

Key:
[1] = molecular target: T1, BaiJ ([Clostridium] scindens, UniProt B0NCC6); assay: LC/HRMS product quantification, single enzyme; type: biochemical; conditions: reduction; NAD, NADP, NADH, NADPH, FMN, FAD, CoA, ATP, ADP 500 μM each; HEPES pH 7.5, 37 °C, anoxic
T1 construct: gene urdA; recombinant in E. coli BL21-CodonPlus(DE3)-RIPL, pET28b+ or modified pET28b+, His and/or Strep tag, FAD and FMN added before lysis
T1 sequence (B0NCC6 1-563): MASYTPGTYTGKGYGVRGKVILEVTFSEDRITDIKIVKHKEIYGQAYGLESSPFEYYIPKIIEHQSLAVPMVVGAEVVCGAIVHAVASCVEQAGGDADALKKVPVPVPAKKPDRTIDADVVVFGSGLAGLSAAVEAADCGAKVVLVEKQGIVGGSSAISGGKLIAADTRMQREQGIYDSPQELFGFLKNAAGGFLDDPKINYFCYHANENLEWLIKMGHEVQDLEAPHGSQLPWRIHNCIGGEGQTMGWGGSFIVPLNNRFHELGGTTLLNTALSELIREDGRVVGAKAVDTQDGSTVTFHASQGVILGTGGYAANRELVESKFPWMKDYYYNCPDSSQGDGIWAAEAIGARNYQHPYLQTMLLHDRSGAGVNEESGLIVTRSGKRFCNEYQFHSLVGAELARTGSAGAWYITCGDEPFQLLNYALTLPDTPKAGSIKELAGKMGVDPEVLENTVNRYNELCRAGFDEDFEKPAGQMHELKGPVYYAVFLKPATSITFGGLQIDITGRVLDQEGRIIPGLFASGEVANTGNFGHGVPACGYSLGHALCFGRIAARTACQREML

[2] = molecular target: T2, BaiB ([Clostridium] scindens, UniProt A0A494WIV0); assay: LC/HRMS substrate depletion and detection of CoA conjugate; type: biochemical; conditions: CoA ligation; CoA and ATP; HEPES pH 7.5, anoxic, 18 h
T2 construct: recombinant in E. coli BL21-CodonPlus(DE3)-RIPL, pET28b+ or modified pET28b+, His and/or Strep tag
T2 sequence (A0A494WIV0 1-507): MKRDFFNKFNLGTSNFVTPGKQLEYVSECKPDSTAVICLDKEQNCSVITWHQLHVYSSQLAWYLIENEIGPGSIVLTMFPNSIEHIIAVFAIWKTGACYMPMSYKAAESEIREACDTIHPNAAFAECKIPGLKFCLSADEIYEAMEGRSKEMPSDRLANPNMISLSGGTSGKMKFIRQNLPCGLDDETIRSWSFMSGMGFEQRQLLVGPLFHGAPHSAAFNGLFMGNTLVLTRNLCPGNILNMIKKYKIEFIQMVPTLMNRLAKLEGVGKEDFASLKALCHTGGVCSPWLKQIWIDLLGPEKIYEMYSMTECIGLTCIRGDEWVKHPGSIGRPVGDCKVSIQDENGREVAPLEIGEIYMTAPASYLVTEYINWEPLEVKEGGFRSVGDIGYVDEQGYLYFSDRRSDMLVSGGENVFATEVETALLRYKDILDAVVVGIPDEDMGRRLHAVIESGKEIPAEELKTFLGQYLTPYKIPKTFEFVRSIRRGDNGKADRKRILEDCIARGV

Compound | LC/HRMS product quantification, single enzyme [1] | LC/HRMS substrate depletion and detection of CoA conjugate [2]
C[C@H](CCC(=O)O)[C@H]1CC[C@H]2[C@@H]3CCC4=CC(=O)CC[C@]4(C)[C@H]3CC[C@]12C [3-oxo-Δ^4-LCA] | BaiJ reduces 3-oxo-Δ^4-LCA and forms 3-oxo-allo-LCA as the only reduced product | –
C[C@H](CCC(=O)O)[C@H]1CC[C@H]2[C@@H]3[C@H](O)CC4=CC(=O)CC[C@]4(C)[C@H]3CC[C@]12C [3-oxo-Δ^4-CDCA] | – | the concentration of 3-oxo-Δ^4-CDCA decreased significantly in the reaction with BaiB
